pIC50: −log10 of the molar value. Values belong to the compound of their own block, whether it stands above or below them.
How the values were obtained:
HeLa = assay: Antiproliferative activity against human HeLa cells assessed as reduction in cell viability; format: functional, cell-based
HepG2 [1] = assay: Antiproliferative activity against human HepG2 cells assessed as reduction in cell viability; format: functional, cell-based
Hs-578T = assay: Antiproliferative activity against human Hs-578T cells assessed as reduction in cell viability; format: functional, cell-based
[2] = Anticancer activity against human LNCaP/AR cells; format: functional, cell-based
HepG2 [3] = assay: Cytotoxicity against human HepG2 cells assessed as reduction in cell viability at 200 uM incubated for 48 hrs by MTT assay; format: functional
HepG2 [4] = assay: Cytotoxicity against human HepG2 cells assessed as reduction in cell viability at 200 uM incubated for 24 hrs by MTT assay; format: functional, cell-based; settings: HepG2, 24 h

pIC50 (HeLa): 6.08 | pIC50 (HepG2 [1]): 5.29
Structure (SMILES): CNc1nc(CC(=O)N/N=C/c2coc3ccccc3c2=O)cs1
pIC50 (Hs-578T): 5.31

pIC50 [2]: 6.42
Structure (SMILES): CC(=O)c1cccc(-c2csc(N3CCOCC3)n2)c1

Structure (SMILES): CC1CCN(c2nc(-c3ccc4ccccc4c3)cs2)CC1
Activity (HepG2 [3]): 57%

Structure (SMILES): c1ccc2cc(-c3csc(N4CCCC4)n3)ccc2c1
pIC50 (HepG2 [4]): 5.30

— ChEMBL document CHEMBL5244229, “Thiazole-containing compounds as therapeutic targets for cancer therapy” (Eur J Med Chem, 2020)
